Results: patent US11993604B2, “Substituted pyrazolo[4,3-H]quinazolines as protein kinase inhibitors” (SHENGKE PHARMACEUTICALS (JIANGSU) LTD., priority 2017, dated 2024)
Counter-ions that a name gives are not always drawn.

How the values were obtained:
[1] = target: T1, recombinant CDK4/Cyclin D1 (Homo sapiens, UniProt P11802); test: Biochemical kinase inhibition test, CDK4/Cyclin D1 (32P-ATP, retinoblastoma protein substrate); settings: three-fold serial dilution from 10 μM; 10 μM ATP; read-out: CDK4/D1 (nM), enzyme inhibitory activity IC50
T1 construct: purchased Life Technologies PV4204
T1 sequence (P11802 whole entry): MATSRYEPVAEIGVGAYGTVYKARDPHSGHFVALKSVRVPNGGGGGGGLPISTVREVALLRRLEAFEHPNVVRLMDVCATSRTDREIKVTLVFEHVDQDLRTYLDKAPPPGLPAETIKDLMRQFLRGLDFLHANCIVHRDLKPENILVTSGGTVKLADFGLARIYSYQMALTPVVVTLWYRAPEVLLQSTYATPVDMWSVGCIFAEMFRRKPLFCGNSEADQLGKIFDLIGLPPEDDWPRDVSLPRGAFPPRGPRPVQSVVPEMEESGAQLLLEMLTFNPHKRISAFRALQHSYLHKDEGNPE
T1 sequence (P24385 whole entry partner): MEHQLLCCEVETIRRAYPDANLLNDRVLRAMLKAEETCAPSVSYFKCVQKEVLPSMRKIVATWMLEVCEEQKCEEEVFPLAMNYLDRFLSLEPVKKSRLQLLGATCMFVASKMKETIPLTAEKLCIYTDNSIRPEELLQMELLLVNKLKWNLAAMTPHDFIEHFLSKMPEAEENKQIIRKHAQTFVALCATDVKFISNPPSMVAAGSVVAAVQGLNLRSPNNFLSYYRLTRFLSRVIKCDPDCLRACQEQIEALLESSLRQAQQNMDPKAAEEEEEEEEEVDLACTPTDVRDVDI

CDK6/cyclin D1 = CDK6/cyclin D1 (Homo sapiens, UniProt Q00534); test: Biochemical kinase inhibition test, CDK6/cyclin D1 (similar method); settings: for IC50: three-fold serial dilution from 10 μM, 10 μM ATP, read-out: CDK6/D1 (nM), enzyme inhibitory activity IC50; for selectivity for CDK6/cyclin D1 relative to CDK4/cyclin D1 (enzyme inhibitory activity): CDK6/cyclin D1 versus CDK4/cyclin D1
Chain of CDK6/cyclin D1 (Q00534 whole entry, species assumed): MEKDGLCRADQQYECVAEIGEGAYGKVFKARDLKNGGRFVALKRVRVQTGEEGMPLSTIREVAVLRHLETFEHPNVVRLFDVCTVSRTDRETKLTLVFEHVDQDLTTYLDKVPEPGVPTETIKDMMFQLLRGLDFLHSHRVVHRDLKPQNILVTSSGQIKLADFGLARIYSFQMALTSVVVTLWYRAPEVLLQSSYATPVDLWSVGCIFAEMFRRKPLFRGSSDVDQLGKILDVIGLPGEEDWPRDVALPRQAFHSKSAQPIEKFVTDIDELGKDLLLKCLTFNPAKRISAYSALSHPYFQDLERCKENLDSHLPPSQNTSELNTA
Chain of CDK6/cyclin D1 (P24385 whole entry partner, species assumed): as the sequence (P24385 whole entry partner) above
Method: Potency determination of biochemical kinase inhibition test. Kinase activity test and IC50 determination. Firstly, 10 ng of recombinant CDK4/Cyclin D1 (Life Technologies PV4204) was diluted in kinase buffer (20 mM Tris pH 7.5, 10 mM MgCl2, 0.01% NP-40, 2 mM DTT), and was incubated with inhibitors at the indicated concentration at room temperature for 30 minutes. The kinase reaction was initiated by adding […] (1.5 μM) of recombinant retinoblastoma protein, 5 μM ATP and 10μ Ci γ-32P-ATP. The reaction was incubated at 30° C. for 20 minutes, and was terminated by adding 2× Laemmli sample buffer, heated at 95° C. for three minutes, and the resulting solution was dissolved with 12% acrylamide SDS-PAGE and autoradiographed. A densitometer (Bio-Rad) was used to quantify the corresponding phosphorylated substrate protein bands. The resulting density values were plotted as a function of the log drug concentration using Prism 4 Graphpad software. IC50 values were determined by plotting a non-linear regression curve with a variable slope.
The inhibitory activity of the compounds disclosed herein against CDK6/cyclin D1 was tested by a similar method.
The compounds were tested in a three-fold serial dilution from the starting concentration of 10 μM, over 10-fold of IC50. The control compound, staurosporine, was tested in a four-fold serial dilution from the starting concentration of 20 μM, over 10-fold of IC50. These reactions took place in the presence of 10 μM ATP.

SMILES	IC50 [1] [nM]	IC50 (CDK6/cyclin D1) [nM]	selectivity for CDK6/cyclin D1 relative to CDK4/cyclin D1 (enzyme inhibitory activity) (CDK6/cyclin D1)
Cc1cc(Nc2ncc3ccc4cnn(C(C)C)c4c3n2)ncc1N1CCN(C)CC1 [Compound I-5]	5 to 10	10 to 20	–
CCN1CCN(c2cnc(Nc3ncc4ccc5cnn(C(C)C)c5c4n3)cc2C)CC1 [Compound I-8]	5 to 10	10 to 20	–
CCN1CCN(c2ccc(Nc3ncc4ccc5cnn(C(C)C)c5c4n3)nc2C)CC1 [Compound I-9]	1 to 5	< 1	–
Cc1cc(Nc2ncc3ccc4cnn(C(C)C)c4c3n2)ncc1N1CCOC(C)C1 (stereo not drawn) [Compound I-20]	20 to 50	20 to 50	–
Cc1nc(Nc2ncc3ccc4cnn(C(C)C)c4c3n2)ccc1N1CCOC(C)C1 (stereo not drawn) [Compound I-21]	5 to 10	10 to 20	–
Cc1cc(Nc2ncc3ccc4cnn(C(C)C)c4c3n2)ncc1N1CCS(=O)(=O)CC1 [Compound I-29]	20 to 50	20 to 50	–
Cc1nc(Nc2ncc3ccc4cnn(C(C)C)c4c3n2)ccc1N1CCS(=O)(=O)CC1 [Compound I-30]	10 to 20	10 to 20	–
CC(C)n1ncc2ccc3cnc(Nc4ccc(C(=O)N5CCC(N6CCN(C)CC6)CC5)cn4)nc3c21 [Compound I-31]	50 to 100	50 to 100	–
COc1ccc2cc(Nc3ncc4ccc5cnn(C(C)C)c5c4n3)ccc2n1 [Compound I-32]	20 to 50	20 to 50	–
CC(C)n1ncc2ccc3cnc(N4CCC[C@@H]4c4cccc(F)c4)nc3c21 [Compound I-33]	50 to 100	50 to 100	–
CC(C)n1ncc2ccc3cnc(N4CCC[C@@H]4c4cc(F)ccc4F)nc3c21 [Compound I-34]	50 to 100	50 to 100	–
Cc1cc(Nc2ncc3ccc4cnn(C5CCCC5)c4c3n2)ncc1N1CCNCC1 [Compound I-36]	10 to 20	10 to 20	–
Cc1nc(Nc2ncc3ccc4cnn(C5CCCC5)c4c3n2)ccc1N1CCNCC1 [Compound I-37]	1 to 5	< 1	–
CCN1CCN(c2ccc(Nc3ncc4ccc5cnn(C6CCCC6)c5c4n3)nc2)CC1 [Compound I-39]	< 1	1 to 5	–
CCN1CCN(c2ccc(Nc3ncc4ccc5cnn(C6CCCC6)c5c4n3)nc2C)CC1 [Compound I-40]	1 to 5	1 to 5	–
CCN1CCN(c2cnc(Nc3ncc4ccc5cnn(C6CCCC6)c5c4n3)cc2C)CC1 [Compound I-41]	10 to 20	10 to 20	–
Cc1nc(Nc2ncc3ccc4cnn(C5CCCC5)c4c3n2)ccc1N1CCOCC1 [Compound I-43]	1 to 5	1 to 5	–
Cc1cc(Nc2ncc3ccc4cnn(C5CCCC5)c4c3n2)ncc1N1CCOCC1 [Compound I-44]	10 to 20	10 to 20	–
CCn1ncc2ccc3cnc(Nc4cc(F)c(N5CCNCC5)cn4)nc3c21.Cl [Compound I-46]	20 to 50	10 to 20	about 2 times
CCn1ncc2ccc3cnc(Nc4ccc(N5CCNCC5)c(F)n4)nc3c21.Cl [Compound I-47]	10 to 20	5 to 10	about 2 times
CCN1CCN(c2cnc(Nc3ncc4ccc5cnn(CC)c5c4n3)cc2C)CC1 [Compound I-49]	20 to 50	10 to 20	about 2 times
CCn1ncc2ccc3cnc(Nc4cc(C)c(N5CCN(C)CC5)cn4)nc3c21 [Compound I-51]	20 to 50	10 to 20	about 2 times
CCn1ncc2ccc3cnc(Nc4cc(C)c(N5CCOCC5)cn4)nc3c21 [Compound I-52]	10 to 20	10 to 20	–
Cl.Fc1cc(Nc2ncc3ccc4cnn(C5CC5)c4c3n2)ncc1N1CCNCC1 [Compound I-54]	20 to 50	10 to 20	about 2 times
Cc1cc(Nc2ncc3ccc4cnn(C5CC5)c4c3n2)ncc1N1CCN(C)CC1 [Compound I-55]	20 to 50	10 to 20	about 2 times

Next, values leading:

IC50 [1] [nM]	IC50 (CDK6/cyclin D1) [nM]	selectivity for CDK6/cyclin D1 relative to CDK4/cyclin D1 (enzyme inhibitory activity) (CDK6/cyclin D1)	SMILES
< 1	< 1	–	CC(C)n1ncc2ccc3cnc(Nc4ccc(N5CCNCC5)cn4)nc3c21 [Compound I-1, 1-isopropyl-N-(5-(piperazin-1-yl)pyridin-2-yl)-1H-pyrazolo[4,3-h]quinazolin-8-amine hydrochloride]
1 to 5	1 to 5	–	Cc1nc(Nc2ncc3ccc4cnn(C(C)C)c4c3n2)ccc1N1CCNCC1 [Compound I-2]
5 to 10	10 to 20	–	Cc1cc(Nc2ncc3ccc4cnn(C(C)C)c4c3n2)ncc1N1CCNCC1 [Compound I-3]
1 to 5	1 to 5	–	CC(C)n1ncc2ccc3cnc(Nc4ccc(N5CCN(C)CC5)cn4)nc3c21 [Compound I-4]
1 to 5	< 1	–	Cc1nc(Nc2ncc3ccc4cnn(C(C)C)c4c3n2)ccc1N1CCN(C)CC1 [Compound I-6]
1 to 5	1 to 5	–	CCN1CCN(c2ccc(Nc3ncc4ccc5cnn(C(C)C)c5c4n3)nc2)CC1 [Compound I-7]
5 to 10	10 to 20	–	CC(C)n1ncc2ccc3cnc(Nc4cc(F)c(N5CCNCC5)cn4)nc3c21 [Compound I-10]
1 to 5	5 to 10	–	CC(C)n1ncc2ccc3cnc(Nc4ccc(N5CCNCC5)c(F)n4)nc3c21 [Compound I-11]
5 to 10	5 to 10	–	CC(C)n1ncc2ccc3cnc(Nc4ccc(N5CCN[C@@H](C)C5)cn4)nc3c21 [Compound I-12]
5 to 10	5 to 10	–	CC(C)n1ncc2ccc3cnc(Nc4ccc(N5C[C@@H](C)N[C@@H](C)C5)cn4)nc3c21 [Compound I-13]
10 to 20	10 to 20	–	CC(C)n1ncc2ccc3cnc(Nc4ccc(N5CCNC(C)(C)C5)cn4)nc3c21 [Compound I-14]
1 to 5	1 to 5	–	CC(C)n1ncc2ccc3cnc(Nc4ccc(N5CCOCC5)cn4)nc3c21 [Compound I-15]
5 to 10	5 to 10	–	CC1CN(c2ccc(Nc3ncc4ccc5cnn(C(C)C)c5c4n3)nc2)CCO1 (stereo not drawn) [Compound I-16]
5 to 10	5 to 10	–	CC(C)n1ncc2ccc3cnc(Nc4ccc(N5C[C@@H](C)O[C@@H](C)C5)cn4)nc3c21 [Compound I-17]
1 to 5	< 1	–	Cc1nc(Nc2ncc3ccc4cnn(C(C)C)c4c3n2)ccc1N1CCOCC1 [Compound I-18]
20 to 50	10 to 20	–	Cc1cc(Nc2ncc3ccc4cnn(C(C)C)c4c3n2)ncc1N1CCOCC1 [Compound I-19]
10 to 20	10 to 20	–	CC(C)n1ncc2ccc3cnc(Nc4ccc(N5CCCNCC5)cn4)nc3c21 [Compound I-22]
50 to 100	50 to 100	–	CC(C)n1ncc2ccc3cnc(Nc4ccc(N5CCCCC5)cn4)nc3c21 [Compound I-23]
20 to 50	20 to 50	–	CC(C)n1ncc2ccc3cnc(Nc4ccc(N5CCC(N(C)C)CC5)cn4)nc3c21 [Compound I-24]
1 to 5	1 to 5	–	CC(C)n1ncc2ccc3cnc(Nc4ccc(N5CCC6(CC5)CNC6)cn4)nc3c21 [Compound I-25]
1 to 5	1 to 5	–	CC(C)n1ncc2ccc3cnc(Nc4ccc(N5CC6(CCNCC6)C5)cn4)nc3c21 [Compound I-26]
20 to 50	20 to 50	–	CC(C)n1ncc2ccc3cnc(Nc4ccc(N5CCC6(CCNCC6)C5)cn4)nc3c21 [Compound I-27]
10 to 20	10 to 20	–	CC(C)n1ncc2ccc3cnc(Nc4ccc(N5CCS(=O)(=O)CC5)cn4)nc3c21 [Compound I-28]
1 to 5	1 to 5	–	c1cc(Nc2ncc3ccc4cnn(C5CCCC5)c4c3n2)ncc1N1CCNCC1 [Compound I-35]
1 to 5	5 to 10	–	CN1CCN(c2ccc(Nc3ncc4ccc5cnn(C6CCCC6)c5c4n3)nc2)CC1 [Compound I-38]
1 to 5	1 to 5	–	c1cc(Nc2ncc3ccc4cnn(C5CCCC5)c4c3n2)ncc1N1CCOCC1 [Compound I-42]
10 to 20	5 to 10	about 3 times	CCn1ncc2ccc3cnc(Nc4ccc(N5CCNCC5)cn4)nc3c21.Cl [Compound I-45]
10 to 20	5 to 10	about 3 times	CCN1CCN(c2ccc(Nc3ncc4ccc5cnn(CC)c5c4n3)nc2)CC1 [Compound I-48]
10 to 20	5 to 10	about 3 times	CCn1ncc2ccc3cnc(Nc4ccc(N5CCOCC5)cn4)nc3c21 [Compound I-50]
10 to 20	5 to 10	about 2 times	Cl.c1cc(Nc2ncc3ccc4cnn(C5CC5)c4c3n2)ncc1N1CCNCC1 [Compound I-53]
